Experimental data reported in US9233946B2, “Sulfonamide compounds” (KANCERA AB, priority 2010, dated 2016).
Like-named read-outs stand apart in the source and are kept apart here.

Key:
MCF-7 cells = test: Quantification of F-2,6-P2 in MCF-7 cells; assay type: cell-based; conditions: Homo sapiens
From the text: (§1) The relative kinase (formation) and phosphatase (degradation) activities of the bi-functional enzymes PFKFB3 and PFKFB4 control the intracellular levels of the regulator F-2,6-P2, which acts as an allosteric activator of glycolysis. The levels of F-2,6-P2 have been determined in three different cancer cell lines (MCF-7, PANC-1 and NUGC-3) using the van Shaftingen assay. The assay protocols described under “Methods for measurement of enzymatic activity of PFKFB3 and PFKFB4, Method A” have been adapted for the measurement of the inhibitory effect of compounds on the kinase activity of the various isoforms of the bifunctional enzyme (endogenously expressed) in the different cell lines. The modifications are described in the protocol below. All reagents were purchased from commercial sources or prepared inhouse.
Cell Line A (MCF-7, Human Breast Adenocarcinoma Cell Line)
• Cells: MCF-7(ATCC-HBT22). Lot. no: 58469417. • Growth Medium: • Eagle's Minimum Essential Medium (EMEM), Sigma-Aldrich #M5650, 500 ml • 10% FBS, Invitrogen, 10106-169 • 5 mL 200 mM L-glutamine, Invitrogen 25030024 • 5 mL 100 mM Sodium Pyruvate, Invitrogen 11360039 • 0.5 mL 10 mg/ml Bovine Insulin, Sigma-Aldrich 10516 […]
The amount of F-2,6-P2 was quantified based on the coupled enzymatic reaction described by Van Schaftingen. If necessary the samples were further diluted in 20 mM NaOH before quantification. […]

PFKFB3 = PFKFB3 (Homo sapiens (Human), UniProt Q16875); test: PFKFB3 kinase activity, Method B (ADP-Glo Kinase Assay); assay type: biochemical
Sequence of PFKFB3 (Q16875 whole entry): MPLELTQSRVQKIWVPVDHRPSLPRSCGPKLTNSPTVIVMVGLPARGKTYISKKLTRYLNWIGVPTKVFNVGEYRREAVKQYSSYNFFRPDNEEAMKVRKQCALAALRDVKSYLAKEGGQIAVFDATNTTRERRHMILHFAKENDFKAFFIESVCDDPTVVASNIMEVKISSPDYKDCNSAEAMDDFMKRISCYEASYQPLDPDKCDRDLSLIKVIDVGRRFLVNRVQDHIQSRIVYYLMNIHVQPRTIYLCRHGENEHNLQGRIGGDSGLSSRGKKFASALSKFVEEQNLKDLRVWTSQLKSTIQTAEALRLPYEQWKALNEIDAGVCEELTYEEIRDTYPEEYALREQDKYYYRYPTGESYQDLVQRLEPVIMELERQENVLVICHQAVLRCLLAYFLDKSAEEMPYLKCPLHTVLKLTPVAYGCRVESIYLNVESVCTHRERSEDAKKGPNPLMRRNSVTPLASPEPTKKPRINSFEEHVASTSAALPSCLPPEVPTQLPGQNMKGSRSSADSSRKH
From the text: The PFKFB3 (placenta form) and PFKFB4 were produced and purified to homogeneity from E. coli at Biovitrum and at Sprint Bioscience. All other reagents were purchased from commercial sources. Two independent methods have been used for determination of the kinase activity of PFKFB3 (Method A and Method B). Method B has been used for determination of the kinase activity of PFKFB4.
Method B: The kinase activity of the bi-functional enzyme is readily quantified based on the production of ADP and F-2,6-P2 from ATP and F6P. The ADP is detected with a kit, ADP-Glo™ Kinase Assay^(a-e), from Promega. The assay is a luminescent ADP detection assay that measures kinase activity by quantifying the amount of ADP produced during the kinase reaction. The assay is performed in two steps; first, after the kinase reaction, an equal volume of ADP-Glo™ Reagent is added to terminate the kinase reaction and deplete the remaining ATP. Second, the Kinase Detection Reagent is added to simultaneously convert ADP to ATP and allow the newly synthesized ATP to be measured using a luciferase/luciferine reaction. The light generated is measured using a luminescence counter (1450 MicroBeta TriLux).
The assay was performed in white 384-well microtiter plates (OptiPlate, 6007299, PerkinElmer) by consecutive additions of 0.1 μL of a test compound solution (serial diluted in DMSO from compound DMSO stock solution and dispensed by acoustic dispensing from UV-star 384-well plate 7360153, VWR), 5 μL of enzyme solution and 5 μL of a substrate (fructose-6-phosphate (F6P) and adenosine-5′-triphosphate (ATP)) containing solution. […] Four reference dose response curves, one of them being the QC compound, were included in row O1-2, P1-2, and serial diluted as the test compounds. The final concentrations of all reagents in a total assay volume of 10.1 μL per well were: • 50 mM Tris-HCl at pH 8.0 • 10 mM MgCl2 • 5 mM Na2HPO4 at pH 8.0 • 81.48 nM PFKFB3 or 145 nM PFKFB4 • 8 μM ATP • 100 μM F6P (acid treated and then neutralized to remove any contaminating F-2,6-P2; see Van Schaftingen, 1984) • 0.005% Tween-20 • 1 mM dithiothreitol (DTT) • A test compound at various concentrations or controls (final DMSO concentration 0.99%)
Enzyme, compounds and controls were pre-incubated at room temperature for 15 min before the addition of substrate solution. The enzymatic reaction was allowed to proceed for 20 min (PFKFB3) or 40 min (PFKFB4) at room temperature. The reaction was terminated by the addition of 10 μL of ADP-Glo™ Reagent to all wells and the plate was incubated for 40 min at room temperature. After addition of 20 μL Kinase Detection Reagent to all wells the plate was incubated for 30 min at room temperature, followed by measurement in 1450 MicroBeta TriLux. All plates were centrifuged after each addition (room temperature, short spin, 500 RPM, Megafuge 1.0 Heraeus Instruments).
The inhibitory potency or IC50 values of test compounds on the kinase activity of PFKFB3 or PFKFB4 were calculated using a four-parameter model (model 205) in XLfit (IDBS ActivityBase XE Runner).

PANC-1 cells = test: Quantification of F-2,6-P2 in PANC-1 cells; assay type: cell-based; conditions: Homo sapiens, PANC-1; read-out: IC50 based on quantification of F-2,6-P2
From the text: as §1
Cell Line B (PANC-1, Human Pancreatic Carcinoma Cell Line)
• Cells: PANC-1 (ATCC-CRL-1469). Lot. no: 58564651. • Growth medium: Dulbecco's Modified Eagle's Medium, DMEM, ATCC-30-2002 10% FBS, Invitrogen, 10106-169
Cells were seeded at a concentration of 250 000 cells/mL in 100 μL growth medium (25 000 cells/well)
Starvation medium: DMEM/F12 without phenol red and glucose free, SVA, 991373 0.25% FBS, Invitrogen, 10106-169
Induction medium: DMEM/F12 without phenol red and glucose free, SVA, 991373 0.25% FBS, Invitrogen, 10106-169 (same as starvation medium)
Cells were seeded in 96-well Corning Costar tissue culture plates (CLS3595, Sigma-Aldrich) using the concentrations specified above for the three different cell lines A-C and incubated over night at 37° C. and 5% CO2. Row A was left empty. Next day the growth medium was discarded and replaced with 100 μL starvation medium. The plates were incubated for 18 h at 37° C. and 5% CO2. After 18 h of starvation the cells were induced with 100 μL compound or control solutions. Compounds were either tested in two concentrations (50 μM and 10 μM) or in dose response curves starting from 50 μM and the final DMSO concentration in assay plates was 0.5%. Also a dose response curve of a reference inhibitor was included in row H on each plate. All compounds were tested in duplicate plates. Compounds (in 96 well CLS 3365, Sigma-Aldrich) were serial diluted in DMSO from 10 mM compound DMSO stock solutions with Janus (automated liquid handling workstation from PerkinElmer). 5 μL were transferred to a Greiner deep well plate (736-0155, VWR) with 495 μL starvation medium. The final start concentration of compounds in the dilution plate was 100 μM, 1% DMSO. For compounds tested as single points, 10 mM compound solutions were diluted five fold in DMSO to 2 mM, followed by the transfer of 5 μL to separate dilution plates with 495 μL starvation medium. The final concentration of compounds in these dilution plates were 100 or 20 μM, respectively, and final concentration of DMSO was 1%. The plates were incubated at 37° C. and 5% CO2 for 1 h, followed by the addition of 10 μL 20 mM D-glucose in starvation medium. Controls, with and without 1 mM glucose, were included in row B. The final assay volume was 210 μL per well. After 2 h of incubation at 37° C. and 5% CO2, supernatants were discarded and the cells were lysed by the addition of 25 μL 250 mM NaOH. The plates were incubated at 37° C. and 5% CO2 for 5 min followed by an addition of 75 μL MilliQ dH2O. The supernatants were further diluted with 210 μL MilliQ dH2O to a final concentration of 20 mM NaOH. 200 μL were transferred to NUNC 96-well plates (7322661, VWR) and the plates were sealed and stored at −20° C. until analysis.
(§2) The amount of F-2,6-P2 was quantified based on the coupled enzymatic reaction described by Van Schaftingen. If necessary the samples were further diluted in 20 mM NaOH before quantification. Plates stored at −20° C. were thawed and the F-2,6-P2 quantification was initiated by transferring 40 μL from each well of the NUNC plate to the corresponding position in a trans-parent 96-well SpectraPlate-MB (6005649, PerkinElmer). […]

NUGC-3 cells = test: Quantification of F-2,6-P2 in NUGC-3 cells; assay type: cell-based; conditions: Homo sapiens, read-out: IC50 based on quantification of F-2,6-P2
From the text: as §1
Cell Line C (NUGC-3, Human Gastric Cancer Cell Line)
Cells were seeded at a concentration of 350 000 cells/mL in 100 μL growth medium (35 000 cells/well) […]
as §2

[1] = tested on: NUGC3 gastric tumor cell line; test: Inhibition of cancer cell proliferation (Sulphorhodamine B total cellular protein); assay type: cell-based, human; conditions: added at 0 h and again at 48 h, total of 120 h, FIG. 1
Protocol: To assess the antiproliferative response elicited by the compounds of the present invention in different tumour cell lines, total cellular protein in samples was quantified using the Sulphorhodamine B kit, TOX6, (Sigma-Aldrich).
Cells from selected tumour cell lines were cultured at 37° C., 5% CO2, normoxia, in DMEM/F12 medium +10% FBS. Cells were plated at a density of 6-12 000 cells/well, depending on cell-line specific size and growth characteristics, and allowed to attach overnight.
Culture media supernatants were then removed and replaced with either fresh medium or with compounds of the present invention diluted in cell culture medium to indicated concentrations, and to a maximal DMSO concentration of 0.1%. All treatments were in quadruplicate. After indicated incubation times, samples were washed with PBS and the total cellular protein in each sample was quantitated after precipitation with TCA according to the manufacturer's instructions. […] After air drying, bound dye was solubilized in 200 μL 10 mM Tris base, and the absorbance of dye was measured at a wavelength of 565 nm. To quantify growth, samples were collected also at t=0 h, and the resulting absorbance was set to 100%.
In brief, the Example 74 was added at the indicated concentrations at 0 h and again at 48 h. After a total of 120 h, the measured effect on cancer cell proliferation was quantified as described above.

Row | Compound | IC50 (PFKFB3) [nM] | also measured
1 | COC(=O)c1cc(NS(=O)(=O)c2sc3ccc(Cl)cc3c2C)ccc1O [Example 140, Methyl 5-{[(5-chloro-3-methyl-1-benzothiophen-2-yl)sulfonyl]amino}-2-hydroxybenzoate] | – | IC50 (MCF-7 cells; MCF7, cells seeded in the starvation medium containing 25 mM glucose, 25 000 cells/well, read-out: IC50 based on quantification of F-2,6-P2): 1200 nM
2 | CSc1nccc(-c2ccc(S(=O)(=O)Nc3cccc(C(=O)O)c3)s2)n1 [Example 61, 3-[[5-(2-Methylsulfanylpyrimidin-4-yl)-2-thienyl]sulfonylamino]benzoic acid] | 2240 | –
3 | Cc1c(S(=O)(=O)Nc2cccc(-c3nnn[nH]3)c2)sc2ccccc12 [Example 39, 3-Methyl-N-[3-(1H-tetrazol-5-yl)phenyl]-1-benzothiophene-2-sulfonamide] | 280 | –
4 | O=S(=O)(Nc1cccc(-c2nnn[nH]2)c1)c1ccc(-c2ccc(Cl)c(Cl)c2)cc1 [Example 86, 3′,4′-Dichloro-N-[3-(1H-tetrazol-5-yl)phenyl]biphenyl-4-sulfonamide] | 2800 | –
5 | O=S(=O)(Nc1cccc(-c2nnn[nH]2)c1)c1ccc(-c2cccc(C(F)(F)F)c2)s1 [Example 99, N-[3-(1H-Tetrazol-5-yl)phenyl]-5-[3-(trifluoromethyl)phenyl]thiophene-2-sulfonamide] | 1420 | –
6 | O=S(=O)(Nc1cccc(-c2nnn[nH]2)c1)c1ccc(Cl)c2nonc12 [Example 73, 7-Chloro-N-[3-(1H-tetrazol-5-yl)phenyl]-2,1,3-benzoxadiazole-4-sulfonamide] | 570 | –
7 | Cc1c(S(=O)(=O)Nc2cccc(-c3cnco3)c2)sc2ccc(Cl)cc12 [Example 141, 5-Chloro-3-methyl-N-[3-(1,3-oxazol-5-yl)phenyl]-1-benzothiophene-2-sulfonamide] | – | IC50 (MCF-7 cells; MCF7, read-out: IC50 based on quantification of F-2,6-P2): 3000 nM
8 | Cc1ccc2sc(S(=O)(=O)Nc3cccc(-c4nnn[nH]4)c3)c(C)c2c1 [Example 33, 3,5-Dimethyl-N-[3-(1H-tetrazol-5-yl)phenyl]-1-benzothiophene-2-sulfonamide] | 130 | –
9 | COC(=O)c1cccc(NS(=O)(=O)c2sc3ccc(Cl)cc3c2C)c1 [Example 74, Methyl 3-{[(5-chloro-3-methyl-1-benzothien-2-yl)sulfonyl]amino}benzoate] | – | IC50 (PANC-1 cells): 3700 nM; IC50 (NUGC-3 cells): 4000 nM; effect on cell proliferation [1]: growth-inhibitory effect
10 | O=S(=O)(Nc1cccc(-c2nnn[nH]2)c1)c1cc(Cl)c(Cl)cc1Cl [Example 71, 2,4,5-Trichloro-N-[3-(1H-tetrazol-5-yl)phenyl]benzenesulfonamide] | 2390 | –
